This passage reports EC50 results from PubChem BioAssay AID434951 (Broad Institute, 2010).

Calls of active or inactive are those of the source.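 Rule for the calls: active = a fitted half-maximal concentration EC50 for the rise in nuclear signal no higher than ten times the top dose tested; inconclusive = flat fit with activity between 30% and 70%, or unusable fit; inactive = EC50 beyond ten times the top dose.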 A value given as a limit tells only on which side of the number the result lay.

Sequence of Hypoxia-inducible factor 1-alpha (Homo sapiens) (Q16665 whole entry, looked up): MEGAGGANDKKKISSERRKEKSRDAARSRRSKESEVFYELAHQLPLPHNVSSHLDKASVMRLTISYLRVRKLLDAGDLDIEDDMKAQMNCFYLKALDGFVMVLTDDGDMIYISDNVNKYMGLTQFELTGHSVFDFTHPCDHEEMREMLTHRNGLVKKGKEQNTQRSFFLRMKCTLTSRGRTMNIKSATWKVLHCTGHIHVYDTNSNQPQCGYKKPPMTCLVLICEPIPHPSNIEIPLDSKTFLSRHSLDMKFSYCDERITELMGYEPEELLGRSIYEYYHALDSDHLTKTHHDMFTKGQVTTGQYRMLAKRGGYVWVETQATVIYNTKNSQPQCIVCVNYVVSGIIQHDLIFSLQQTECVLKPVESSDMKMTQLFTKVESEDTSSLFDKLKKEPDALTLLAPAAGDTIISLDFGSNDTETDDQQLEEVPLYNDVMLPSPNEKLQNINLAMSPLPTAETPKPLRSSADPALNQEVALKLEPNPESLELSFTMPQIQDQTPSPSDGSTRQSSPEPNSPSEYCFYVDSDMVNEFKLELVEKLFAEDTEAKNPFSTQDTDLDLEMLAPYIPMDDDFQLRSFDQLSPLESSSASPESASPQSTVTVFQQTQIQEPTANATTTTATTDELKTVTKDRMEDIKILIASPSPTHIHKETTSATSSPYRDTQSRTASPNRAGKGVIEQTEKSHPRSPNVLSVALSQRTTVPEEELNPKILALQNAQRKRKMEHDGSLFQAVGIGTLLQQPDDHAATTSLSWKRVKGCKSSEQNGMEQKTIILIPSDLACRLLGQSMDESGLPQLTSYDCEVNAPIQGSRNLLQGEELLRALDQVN

This assay addresses Hypoxia-inducible factor 1-alpha (Homo sapiens) (UniProt Q16665). The assay can be described thus: HIF pathway activation, GFP-HIF1alpha translocation – imaging, fluorescence, U2OS GFP-HIF1alpha, confirmation (AID 434951). To be noted: U2OS GFP-HIF1alpha nuclear intensity, high-content imaging.
As for `CC/C(=N\N1CCCCCC1)c1c(O)n(-c2ccc(C)cc2)c(=O)[nH]c1=O`, the EC50 (as a rule, the midpoint of the concentration-response curve) was > 35 µM (inactive). As for `Cn1nnc2cc(C(=O)N3CCC(c4ccccc4)C3)ccc21` (stereo not given), the figure is > 35 µM (inactive); as for `O=[N+]([O-])c1ccc(O)c(/C=N/Nc2ccccn2)c1`, 6.39 µM. Turning to `Cc1ccc(/C(=N/Nc2ncnc3ccccc23)C(=O)O)cc1`, the EC50 is > 35 µM (inactive). As for `CCn1nc(NS(=O)(=O)c2ccc(NC(C)=O)cc2)c2cc3cccc(C)c3nc21`, the figure is > 35 µM (inactive). `O=C1OCc2cc(NC(=O)C34CC5CC(CC(C5)C3)C4)ccc21`: the EC50 was > 35 µM (inactive).

For the compound `O=C(O)c1ccc2cccc(O)c2n1`, the EC50 was > 35 µM (inactive). As to `O=C(CN(Cc1ccc(F)cc1)C(=O)CCC(=O)Nc1nccs1)NCC1CCCO1` (stereo not given), the EC50 is > 35 µM (inactive). `CCCC(=O)NC(c1ccc(N(C)C)cc1)c1ccc2cccnc2c1O` (stereo not given): the 50% effective concentration (EC50) was 6.62 µM. As for `O=C(CCCCCN1C(=O)c2ccccc2C1=O)Nc1ccc2c(c1)OCCO2`, the figure is > 35 µM (inactive).

On to `CC(C)(C)c1csc(NNC(=O)c2ccc(Br)cc2)n1`, for which the EC50 is 29 µM. As to `Cc1ccc(C2(O)CN(c3ccccc3C)C3=[N+]2CCS3)cc1` (stereo not given), the EC50 was > 35 µM (inactive). With `O=C(N/N=C/c1ccc(O)c(O)c1O)/C(=C/c1ccc([N+](=O)[O-])cc1)NC(=O)c1ccccc1`, the EC50 was > 35 µM (inactive). For `Oc1ccc(/C=N/Nc2ccc(C(F)(F)F)cn2)c(O)c1` the value was 29.8 µM. For `Cc1cc(-c2nnnn2-c2cc(Cl)cc(Cl)c2)no1` the value was > 35 µM (inactive). Turning to `Cc1ccc(C(=O)Nc2ccc3c(c2)nc(CCNC(=O)c2ccco2)n3C)cc1`, the EC50 is > 35 µM (inactive). Turning to `CCSc1cc(C)nc2c(-c3ccccc3)cnn12`, the EC50 was > 35 µM (inactive). As for `CCC(=NCc1cc(OC)cc(OC)c1)c1c(O)[nH]c(=O)[nH]c1=O`, the figure is > 35 µM (inactive); as for `CCN(CC)c1ccc(/C=N/Nc2nc(C)cc(=O)[nH]2)c(O)c1`, 34.4 µM. In the case of `COc1cc2ccccc2cc1C(=O)Nc1ccc(C)cc1`, the EC50 was > 35 µM (inactive). For `O=S(=O)(CCSc1nc2ccccc2s1)c1nc2ccccc2s1`, the EC50 is > 35 µM (inactive). For `CCN(CC(=O)Nc1ccc2c(c1)OCCO2)CC(=O)Nc1ccc2c(c1)OCO2` the value was > 35 µM (inactive).

With `Cn1nnnc1N=N/C(=N/Nc1ccccc1)c1ccccc1`, the EC50 was 7.53 µM. Turning to `COC(CN(C(=O)CCl)C(C(=O)NC1CCCCC1)c1ccc(Cl)cc1)OC` (stereo not given), the EC50 is 19 µM. For `OCCNc1c2ccccc2nc2ccccc12`, the 50% effective concentration (EC50) is 32.4 µM. Turning to `COc1cc(C2CC(=O)N3CN(Cc4ccccc4)CSC3=C2C#N)ccc1OCc1ccccc1` (stereo not given), the EC50 is > 35 µM (inactive). For `N/C(=N\OC(=O)C(c1ccccc1)c1ccccc1)c1cccnc1` the value was > 35 µM (inactive).

As for `COc1ccc(NC(=O)CCC(=O)N(Cc2ccc(OC)c(OC)c2)c2nccs2)cc1`, the EC50 is > 35 µM (inactive).

`CCOc1cc(/C=N/NC(=O)c2cccnc2)ccc1OCc1ccc(C(=O)OC)o1`: the EC50 is > 35 µM (inactive). For `Cc1sc2cc3c(c(C(=O)c4ccccc4)[n+]2c1C)-c1cccc2cccc-3c12` the value was > 35 µM (inactive); for `CCN(CC)c1ccc(/C=N/NC(=O)c2cccc(S(=O)(=O)Nc3ccccc3OC)c2)c(O)c1`, 0.838 µM. As for `CC(C)[C@H](NC(=O)c1ccccc1Cl)C(=O)Nc1nc(-c2ccccn2)cs1`, the EC50 was 6.64 µM.

As to `CCOC(=O)N1CCN(c2ccc(Cl)c(Cl)c2)CC1`, the EC50 is > 35 µM (inactive). In the case of `CC(C)C(=O)NC(c1cccc([N+](=O)[O-])c1)c1ccc2cccnc2c1O` (stereo not given), the EC50 was 2.3 µM. As for `CN(CC(=O)Nc1ccc(F)c(F)c1F)C(=O)/C=C/c1ccc(Cl)cc1`, the figure is > 35 µM (inactive); as for `CCCC(=O)NC(c1ccccc1)c1ccc2cccnc2c1O` (stereo not given), 4.71 µM; as for `COc1cc(C(=O)N/N=C(\c2ccccc2)c2ccccn2)cc(OC)c1OC`, 11.3 µM. For `COc1ccc2oc(C(=O)OCC(=O)Nc3ccccc3OC)c(C)c2c1` the value was > 35 µM (inactive); for `Cc1ccc(C2(C)NC(=O)N(CC(=O)Nc3ccccc3N3CCCC3)C2=O)cc1` (stereo not given), > 35 µM (inactive). For `COc1ccc(CN2CCNC(=O)C2CC(=O)N(C)CC2CCOCC2)cc1OC` (stereo not given), the EC50 is > 35 µM (inactive). For `Cc1nnc(-c2ccccc2)c(=O)n1/N=C/c1c(O)ccc2ccccc12` the value was 8.4 µM; for `O=C(NCCc1ccccc1)c1cc(-c2ccco2)on1`, 10.8 µM. For `O=C(CCN1C(=O)S/C(=C\c2ccc(F)cc2)C1=O)Nc1ccc(C(=O)O)c(O)c1` the value was > 35 µM (inactive); for `CCC(Cc1ccccc1)n1c(=S)[nH]c2ccccc2c1=O` (stereo not given), > 35 µM (inactive). As for `CCn1cc(C(=O)NCC(OC)OC)c(=O)c2cc(S(=O)(=O)N3CCC(C)CC3)ccc21`, the figure is > 35 µM (inactive). `Cc1ccccc1-c1nc2ccccc2c(=O)n1/N=C/c1ccccc1[N+](=O)[O-]`: the EC50 was > 35 µM (inactive). With `CCCCCN(C(=O)CCC(=O)OCC(=O)c1ccc(C(C)CC)cc1)c1c(N)n(CCCC)c(=O)[nH]c1=O` (stereo not given), the EC50 was > 35 µM (inactive). As to `O=C(Nc1ccccc1O)c1ccc(NS(=O)(=O)c2cccc3cccnc23)cc1`, the EC50 was 6.84 µM. As for `CCOC(=O)c1c(C)[nH]c(C(=O)N/N=C\c2ccccc2O)c1C`, the EC50 was 5.66 µM.

Turning to `O=C(O)c1cccc(N2CCCC2=O)c1`, the EC50 was > 35 µM (inactive). As for `COc1cc(NC(=O)CN2C(=O)c3ccccc3Sc3ccc(C(=O)N4CCOCC4)cc32)cc(OC)c1OC`, the figure is > 35 µM (inactive); as for `S=C(Nc1ccc2cn[nH]c2c1)Nc1ccccc1Cl`, > 35 µM (inactive). With `O=C(N/N=C/C(Br)=C\c1ccccc1)c1n[nH]c2c1CCC2`, the EC50 was 7.85 µM. As for `O=C(NCc1ccccc1)C(=O)c1cn(CC(=O)N2CCOCC2)c2ccccc12`, the figure is > 35 µM (inactive); as for `O=Cc1cc(N=Nc2ccccc2Cl)ccc1O`, > 35 µM (inactive); as for `O=C(CNC(=O)c1ccccc1Br)N/N=C/c1cc(Br)ccc1O`, 6.52 µM. In the case of `CCOC(=O)c1c(S(=O)(=O)N2CCC(C)CC2)c(C)n(C)c1C`, the EC50 was > 35 µM (inactive). As for `Nc1ncnc2c1ncn2CCN1CCOCC1`, the EC50 was > 35 µM (inactive).

With `CCN(CC)S(=O)(=O)c1ccc(N/N=C/c2ccc(O)cc2O)nc1`, the concentration for a half-maximal effect (EC50) was 0.715 µM. As for `CC(=O)c1cccc(NC(=O)CN(C)S(=O)(=O)c2cccc3nsnc23)c1`, the EC50 was > 35 µM (inactive). Take `CC(=O)Nc1sc(-c2ccccc2)nc1-c1ccccc1`: the EC50 is > 35 µM (inactive). Regarding `COCCNC(=O)C(=O)NCC1OCCN1S(=O)(=O)c1cc(F)ccc1F` (stereo not given), the EC50 was > 35 µM (inactive). Regarding `Cc1cc(Nc2ccccc2)cc(=O)n1C`, the EC50 was > 35 µM (inactive). Turning to `COc1ccc(F)cc1CSc1nnnn1-c1ccc(O)cc1`, the EC50 is > 35 µM (inactive).

Turning to `COc1ccc(/C=N/NC(=O)c2ccoc2C)cc1O`, the EC50 is > 35 µM (inactive).
